Molecules are shown by their SMILES.

One data set deals with sGC enzyme. Kind of data set: cGMP GloSensor cell-based assay, 384-well format (HEK293). More on the design: species or system human. The following applies: HEK293 GloSensor 40F cGMP cells, 10 μM DETA-NONOate, geometrical mean; read-out: Glo EC50. The source says:
Human embryonic kidney cells (HEK293) cells expressing GloSensor™ 40F cGMP (Part No: CS182801, Promega) were used to evaluate the activity of test compounds. The luminescent biosensors (engineered luciferase) that were incorporated into these cells detect cGMP formed by the compounds stimulating the sGC enzyme and emit luminescence.
cGMP GloSensor cells were maintained in Dulbecco's Modification of Eagle's Medium (DMEM) supplemented with fetal bovine serum (FBS, 10% final) and hygromycine (200 ug/ml). The day before assay, cells were plated in DMEM with 10% FBS in a 50 μL volume at a density of 1.5×10^4 cells/well in a poly-D-lysine coated 384-well flat white-bottom plate (Corning Cat No 35661). Cells were incubated overnight at 37° C. in a humidified chamber with 5% CO2. The next day, medium was removed and cells were replaced with 40 ul/well of GloSensor™, 2 mM (Promega Cat No E1291). Cells were treated for 90 minutes at 25° C. to allow the substrate to equilibrate in the cells. Test compounds and Diethylenetriamine NONOate (DETA-NONOate) was diluted to 3 mM (20×) in serum-free CO2 independent medium and serially diluted at 4× dilutions to create 5× dose curve from which 10 ul was added to the wells (x μM concentration for test compound solution and 10 μM concentration for DETA-NONOate solution; wherein x is one of the following final concentrations: 30 μM, 7.5 μM, 1.9 μM, 469 nM, 117 nM, 29.3 nM, 7.3 nM, 1.83 nM, 0.46 nM, 0.11 nM, 0.03 nM) For the kinetics studies, luminescense was measured right away for 0.2 sec per well with Envision (Perkin Elmer). For endpoint SAR screening, data were collected after 55 min incubation at room temperature.
(§1) Concentration response data were analyzed using a 4-parameter fit (log (agonist) vs. response-variable slope). The EC50 was interpolated from the curve fit and is defined as the concentration at which the compound elicits 50% of its maximal response. When the experiment was carried out multiple times for a given compound, the geometrical mean of all experiments is reported.

The next data set relates to sGC. Description: cGMP neuronal cell-based assay (rat primary neurons). The following applies: rat primary hippocampal neurons, DETA-NO 10 μM or 30 μM, cGMP by LC-MS/MS; read-out: sGC Neuron EC50. Here is the method:
Rat primary neurons were isolated from fetuses of 18-day pregnant Sprague-Dawley females. The fetuses were collected in Hanks' balanced salt solution (HBSS) and brains were rapidly removed. The cerebral hippocampi were isolated and mechanically fragmented. Further tissue digestion was performed with 0.25% (wt/vol) trypsin solution in HBSS without Ca2+ and Mg2+ for 15 min at 37° C. After trypsination, cells were washed and resuspended in neurobasal medium supplemented with 0.5 mM L-glutamine, 12.5 uM glutamic acid, 2% B-27 and 100 U/mL penicillin, and 100 μg/mL streptomycin. Cells were plated at a density of 26×10^3 or 3×10^4 or 4×10^4 cells/well in a poly-D-lysine coated 384-well flat clear-bottom plate (Corning Cat No 354662). Cells were incubated 6-7 days at 37° C. in a humidified chamber with 5% CO2. Media was removed and cells were washed 1× with HBSS containing Ca2+ and Mg2+, and replaced with 40 uL HBSS containing 0.5 mM IBMX, and incubated for 15 minutes at 37° C. 10 uL of a 5× stock of test compounds with diethylenetriamine NONOate (DETA-NO) was added. Final concentration of DETA-NO was either 10 μM or 30 μM. Cells were incubated for 20 min at 37° C. Medium was removed, 50 uL of ice-cold 10% acetic acid was added, and incubated for 60 minutes at 4° C. Following centrifugation at 4° C. for 5 minutes at 1000×g to pellet cell debris, the supernatant was aspirated to a clean plate and the samples were analyzed for cGMP content. cGMP concentrations were determined from each sample using LC-MS/MS.
as §1

Data set [1] is described as follows: Rat cerebrospinal fluid (CSF) pharmacokinetics. Type of data set: in vivo. The following applies: male, Sprague-Dawley; rat CSF/unbound plasma, PO 3 mg/kg. Here is the method:
PK in rats was determined following oral dosing. For the oral (PO) experiments, a group of 6 male Sprague-Dawley rats with an indwelling catheter placed in the cisterna magna were used. The PO group was dosed with 3.0, or 10 mg/kg of a compound formulated as a solution in PEG400 or suspension in 0.5% Tween 80 and 0.5% Methylcellulose in water. PO doses were administered by oral gavage and delivered to the stomach using a syringe and gavage tube. Following oral dosage administration, the gavage tube was flushed with approximately 0.5 mL of water to ensure complete delivery of the full dose.
Plasma samples were collected as follows: samples of CSF and blood were collected at 1 hour, 2, and optionally at 4 hours post-dosing. CSF samples (0.05 mL) were collected through the intracisternal catheter. Blood samples (0.25 mL) were collected through tail nick sampling. These samples were kept on ice until processed for plasma. Blood samples were centrifuged at 3200 rpm for 5 minutes at approximately 5° C. within 1 hour of collection. Plasma was directly transferred to individual Eppendorf tubes (0.125 mL). Plug caps were placed on the tubes and the tubes frozen at approximately −70° C. and stored until analysis. Plasma and CSF was collected and analyzed for the presence of a compound.
The compound in question and the internal standard were extracted from plasma by precipitation and from CSF by either precipitation or dilution. Samples were analyzed using liquid chromatography (LC) with tandem mass spectrometric detection (MS/MS) using electrospray ionization. The standard curve ranged from 0.1 to 1000 ng/mL. Results of the compounds described herein in this assay are illustrated in Table G below (for a 10 mg/kg dose and/or 3 mg/kg of the compound). Compound concentrations from several animals were combined to give the geometrical mean at each specific dosage and timepoint.
Kp,uu is defined as the concentration ratio of unbound drug in CSF to unbound drug in plasma. Unbound drug in plasma (or free plasma concentration) is calculated by multiplying the total plasma concentration by the unbound fraction as determined by plasma protein binding. The CSF concentration is then divided by the free plasma concentration to determine the Kp,uu. (See e.g., Di et al., J. Med. Chem., 56, 2-12 (2013))

For the molecule `Cc1cnc(-c2cn3ccnc3c(Cc3ccccc3F)n2)nc1O` [Compound I-8, 2-(8-(2-fluorobenzyl)imidazo[1,2-a]pyrazin-6-yl)-5-methylpyrimidin-4-ol], the EC50 with sGC enzyme is more than 1 µM.
Regarding `Oc1nc(-c2cn3ncnc3c(Cc3cccc(F)c3F)n2)ncc1F` [Compound I-10, 2-(8-(2,3-Difluorobenzyl)-[1,2,4]triazolo[1,5-a]pyrazin-6-yl)-5-fluoropyrimidin-4-ol], in the data set on sGC enzyme, the EC50 is 0.1 to 1 µM.
Consider `Oc1nc(-c2cn3ccnc3c(Cc3cccc(F)c3)n2)ncc1F` [Compound I-1, 5-fluoro-2-(8-(3-fluorobenzyl)imidazo[1,2-a]pyrazin-6-yl)pyrimidin-4-ol], for which, in the data set with sGC enzyme, the half-maximal effective concentration (EC50) was 0.1 to 1 µM. Further, in the data set on sGC, the EC50 was 0.1 to 1 µM. In data set [1], this molecule returned a Kp uu at 1 h not above 1, a Kp uu at 2 h of 1 to 2 and a Kp uu at 4 h not above 1.
As to `Oc1nc(-c2cn3ncnc3c(Cc3cc(F)cc(F)c3)n2)ncc1F` [Compound I-13, 2-(8-(3,5-Difluorobenzyl)-[1,2,4]triazolo[1,5-a]pyrazin-6-yl)-5-fluoropyrimidin-4-ol], the EC50 with sGC enzyme lay within 0.1 to 1 µM.
The same measure, in the same setting: next, `Oc1nc(-c2cn3ncnc3c(Cc3cccc(F)c3)n2)ncc1F` [Compound I-11, 5-Fluoro-2-(8-(3-fluorobenzyl)-[1,2,4]triazolo[1,5-a]pyrazin-6-yl)pyrimidin-4-ol]: 0.1 to 1 µM.
With `Oc1nc(-c2cn3ncnc3c(Cc3cc(F)ccc3F)n2)ncc1F` [Compound I-12, 2-(8-(2,5-Difluorobenzyl)-[1,2,4]triazolo[1,5-a]pyrazin-6-yl)-5-fluoropyrimidin-4-ol], the EC50 was 0.1 to 1 µM in the data set on sGC enzyme and not above 0.1 µM in the data set with sGC.
For the molecule `Oc1nc(-c2cn3ccnc3c(Cc3cc(F)cc(F)c3)n2)ncc1F` [Compound I-7, 2-(8-(3,5-Difluorobenzyl)imidazo[1,2-a]pyrazin-6-yl)-5-fluoropyrimidin-4-ol], the values for the EC50 with sGC enzyme and with sGC were 0.1 to 1 µM and not above 0.1 µM, respectively.
The matching figures for `Oc1nc(-c2cn3c(F)cnc3c(Cc3ccccc3F)n2)ncc1F` [Compound I-9]: 0.1 to 1 µM and not above 0.1 µM.
On to `Cc1ccc(Cc2nc(-c3ncc(F)c(O)n3)cn3ccnc23)cc1F` [Compound I-6, 5-Fluoro-2-(8-(3-fluoro-4-methylbenzyl)imidazo[1,2-a]pyrazin-6-yl)pyrimidin-4-ol], for which the EC50 in the data set with sGC enzyme and with sGC was not above 0.1 µM throughout.
Take `Cc1c(F)cc(Cc2nc(-c3ncc(F)c(O)n3)cn3ccnc23)cc1F` [Compound I-3, 5-Fluoro-2-(8-(3,5-difluoro-4-methylbenzyl)imidazo[1,2-a]pyrazin-6-yl)pyrimidin-4-ol]: the EC50 in the data set on sGC enzyme and with sGC was not above 0.1 µM each time.

These data come from patent US20240207265A1, “TREATMENT OF CNS DISEASES WITH sGC STIMULATORS” (Tisento Therapeutics Inc., priority 2021, published 2024).
